The record followed here is ChEMBL document CHEMBL4346710, “Discovery of 7H-pyrrolo[2,3-d]pyrimidine derivatives as selective covalent irreversible inhibitors of interleukin-2-inducible T-cell kinase (Itk)” (Eur J Med Chem, 2019).

This test deals with Tyrosine-protein kinase Blk (Homo sapiens, UniProt P51451). As to the kind of experiment: Inhibition of recombinant full-length human His-tagged BLK cytoplasmic domain expressed in baculovirus expression system assessed as enzyme residual activity at 0.4 uM using fluorophore-labeled tyrosine-1 peptide as substrate incubated for 60 mins by Z'-LYTE assay relative to control.
Chain of Tyrosine-protein kinase Blk (P51451 2-505 limits assumed): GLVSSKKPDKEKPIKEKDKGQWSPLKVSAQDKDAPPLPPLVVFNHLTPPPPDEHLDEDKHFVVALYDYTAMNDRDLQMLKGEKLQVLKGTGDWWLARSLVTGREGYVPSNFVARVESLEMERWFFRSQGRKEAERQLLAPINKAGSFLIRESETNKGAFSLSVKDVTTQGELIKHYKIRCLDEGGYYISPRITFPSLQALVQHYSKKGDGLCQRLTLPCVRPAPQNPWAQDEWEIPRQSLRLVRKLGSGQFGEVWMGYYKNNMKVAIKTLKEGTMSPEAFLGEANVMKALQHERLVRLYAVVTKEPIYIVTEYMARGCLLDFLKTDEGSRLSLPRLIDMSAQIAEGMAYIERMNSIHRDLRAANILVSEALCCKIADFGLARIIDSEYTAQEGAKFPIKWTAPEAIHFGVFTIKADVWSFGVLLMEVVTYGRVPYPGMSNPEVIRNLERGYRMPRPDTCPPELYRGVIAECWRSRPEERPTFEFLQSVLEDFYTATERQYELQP

Structures are written as SMILES.

Turning to `C=CC(=O)N1CCC(Oc2nc(Nc3ccc(N4CCOCC4)cc3)nc3[nH]cc(-c4cncc(NC)n4)c23)CC1`, the Activity was determined as 9%.
